This note sets out measurements from patent US20240246948A1, “BENZAMIDE DERIVATIVE, METHOD FOR PREPARING SAME, AND PHARMACEUTICAL COMPOSITION FOR PREVENTION OR TREATMENT OF CANCER CONTAINING SAME AS ACTIVE INGREDIENT” (HK INNO.N CORPORATION, priority 2021, published 2024).

For experiment [1], the target named is Ba/F3 EGFR L858R/T790M/C797S (LTC) (Homo sapiens, UniProt P00533, T790M/C797S/L858R, cells depend on it). Put plainly: Cell growth inhibitory ability in Ba/F3 cells overexpressing EGFR L858R/T790M/C797S (MTS, CellTiter 96 AQueous). The experiment is classed as cell-based. The conditions noted are these: 72 hours, MTS absorbance at 490 nm, read-out: Ba/F3 EGFR triple mutant L858R/T790M/C797S, IC50. The protocol:
(§1) In order to confirm that the compound represented by formula 1 provided in one aspect of the present invention acts as an allosteric inhibitor against WT and mutant of EGFR, the cell growth inhibitory effect was evaluated in BaF3 cells overexpressing WT and mutant of EGFR.
(§2) More specifically, the cell growth inhibitory ability of the compound of the present invention to the Ba/F3 cell line overexpressing WT and mutant of EGFR was evaluated using CellTiter 96 AQueous Non-Radioactive Cell Proliferation Assay system of Promega, as follows. AQueous Non-Radioactive Cell Proliferation Assay is a method of confirming cell growth inhibitory ability by measuring the degree of color development by reducing MTS (3-(4,5-Dimethylthiazol-2-yl)-5-(3-carboxymethoxyphenyl)-2-(4-sulfophenyl)-2H-tetrazolium) to Formazan by a reductase secreted by mitochondria present in living cells in a cell culture state. The Ba/F3 EGFR WT and Ba/F3 EGFR del19/T790M/C797S (DTC), Ba/F3 EGFR L858R (L), Ba/F3 EGFR L858R/T790M (LT), and Ba/F3 EGFR L858R/T790M/C797S (LTC) mutation cell lines used in the present invention were purchased from the laboratory of Professor Byung-cheol Cho, Yonsei University. All cell lines were cultured in RPMI supplemented with 10% FBS, 1% penicillin-streptomycin and 1 μg/ml of puromycine in a 5% CO2 incubator at 37° C.
(§3) The cell survival inhibitory effect of the compound according to each EGFR mutation was analyzed by the following analysis method.
(§4) BaF3 cells were distributed in a 96-well cell culture plate at the density of 2000˜10000 cells/100 μL/well, and cultured for 24 hours. Thereafter, the concentration of the compound represented by formula 1 provided in one aspect of the present invention was prepared to double the final concentrations of 0.1 nM, 1 nM, 10 nM, 100 nM, 1000 nM and 10000 nM, and the compound was treated to the plate (100 μL/well). The plate was reacted in an incubator at 37° C. for 72 hours. Then, MTS was treated to the plate (20 μL/well) and the plate was incubated at 37° C. for 2 to 4 hours. Finally, after measuring the absorbance at 490 nm using a microplate reader, the relative value compared to 0 nM (% Control) was obtained to confirm the cell growth inhibitory ability of the compound. The measured values were analyzed using Prism program (version 8.0, Graphpad Software, Inc.), and the IC50 value (Inhibition concentration 50), an indicator of the cell growth inhibitory ability of the compound, was calculated.

In experiment [2] the target is Ba/F3 EGFR L858R/T790M (LT) (Homo sapiens, UniProt P00533, T790M/L858R, cells depend on it). Nature of the experiment: Cell growth inhibitory ability in Ba/F3 cells overexpressing EGFR L858R/T790M (MTS, CellTiter 96 AQueous). The settings on record: 72 hours, MTS absorbance at 490 nm, read-out: Ba/F3 EGFR double mutant L858R/T790M, IC50. The experiment is classed as cell-based. On the procedure:
as §1, §2, §3, §4

Sequence of Ba/F3 EGFR L858R/T790M (LT) (P00533 whole entry T790M/L858R): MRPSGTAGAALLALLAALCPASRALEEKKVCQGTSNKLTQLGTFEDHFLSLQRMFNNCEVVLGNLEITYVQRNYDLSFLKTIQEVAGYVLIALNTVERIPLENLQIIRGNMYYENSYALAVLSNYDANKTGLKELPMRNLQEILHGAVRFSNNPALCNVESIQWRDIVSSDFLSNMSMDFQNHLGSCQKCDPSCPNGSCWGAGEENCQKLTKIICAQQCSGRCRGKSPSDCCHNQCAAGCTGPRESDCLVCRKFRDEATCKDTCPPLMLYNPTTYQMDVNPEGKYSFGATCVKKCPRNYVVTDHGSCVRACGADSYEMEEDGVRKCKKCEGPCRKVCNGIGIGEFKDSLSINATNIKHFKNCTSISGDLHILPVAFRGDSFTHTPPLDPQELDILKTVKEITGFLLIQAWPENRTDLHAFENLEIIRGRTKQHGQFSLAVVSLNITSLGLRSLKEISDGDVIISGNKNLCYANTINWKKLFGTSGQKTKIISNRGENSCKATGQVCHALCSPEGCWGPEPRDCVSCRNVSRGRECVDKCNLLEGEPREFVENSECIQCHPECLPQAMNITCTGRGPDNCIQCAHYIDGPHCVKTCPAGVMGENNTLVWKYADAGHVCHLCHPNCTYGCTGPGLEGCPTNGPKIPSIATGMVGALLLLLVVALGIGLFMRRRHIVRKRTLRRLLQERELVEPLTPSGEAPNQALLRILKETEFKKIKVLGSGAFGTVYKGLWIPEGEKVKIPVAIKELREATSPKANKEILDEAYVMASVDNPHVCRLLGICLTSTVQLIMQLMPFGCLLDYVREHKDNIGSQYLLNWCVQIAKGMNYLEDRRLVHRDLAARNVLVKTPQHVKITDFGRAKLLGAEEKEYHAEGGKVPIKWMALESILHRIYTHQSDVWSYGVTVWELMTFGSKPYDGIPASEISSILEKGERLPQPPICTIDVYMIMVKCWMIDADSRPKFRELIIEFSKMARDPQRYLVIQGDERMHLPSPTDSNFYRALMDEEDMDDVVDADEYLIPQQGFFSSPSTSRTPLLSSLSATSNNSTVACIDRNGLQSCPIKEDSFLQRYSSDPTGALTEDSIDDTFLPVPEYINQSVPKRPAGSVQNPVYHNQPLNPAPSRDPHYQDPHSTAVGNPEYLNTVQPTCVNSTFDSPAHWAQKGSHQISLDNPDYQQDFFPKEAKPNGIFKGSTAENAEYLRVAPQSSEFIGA
Sequence of Ba/F3 EGFR L858R/T790M/C797S (LTC) (P00533 whole entry T790M/C797S/L858R): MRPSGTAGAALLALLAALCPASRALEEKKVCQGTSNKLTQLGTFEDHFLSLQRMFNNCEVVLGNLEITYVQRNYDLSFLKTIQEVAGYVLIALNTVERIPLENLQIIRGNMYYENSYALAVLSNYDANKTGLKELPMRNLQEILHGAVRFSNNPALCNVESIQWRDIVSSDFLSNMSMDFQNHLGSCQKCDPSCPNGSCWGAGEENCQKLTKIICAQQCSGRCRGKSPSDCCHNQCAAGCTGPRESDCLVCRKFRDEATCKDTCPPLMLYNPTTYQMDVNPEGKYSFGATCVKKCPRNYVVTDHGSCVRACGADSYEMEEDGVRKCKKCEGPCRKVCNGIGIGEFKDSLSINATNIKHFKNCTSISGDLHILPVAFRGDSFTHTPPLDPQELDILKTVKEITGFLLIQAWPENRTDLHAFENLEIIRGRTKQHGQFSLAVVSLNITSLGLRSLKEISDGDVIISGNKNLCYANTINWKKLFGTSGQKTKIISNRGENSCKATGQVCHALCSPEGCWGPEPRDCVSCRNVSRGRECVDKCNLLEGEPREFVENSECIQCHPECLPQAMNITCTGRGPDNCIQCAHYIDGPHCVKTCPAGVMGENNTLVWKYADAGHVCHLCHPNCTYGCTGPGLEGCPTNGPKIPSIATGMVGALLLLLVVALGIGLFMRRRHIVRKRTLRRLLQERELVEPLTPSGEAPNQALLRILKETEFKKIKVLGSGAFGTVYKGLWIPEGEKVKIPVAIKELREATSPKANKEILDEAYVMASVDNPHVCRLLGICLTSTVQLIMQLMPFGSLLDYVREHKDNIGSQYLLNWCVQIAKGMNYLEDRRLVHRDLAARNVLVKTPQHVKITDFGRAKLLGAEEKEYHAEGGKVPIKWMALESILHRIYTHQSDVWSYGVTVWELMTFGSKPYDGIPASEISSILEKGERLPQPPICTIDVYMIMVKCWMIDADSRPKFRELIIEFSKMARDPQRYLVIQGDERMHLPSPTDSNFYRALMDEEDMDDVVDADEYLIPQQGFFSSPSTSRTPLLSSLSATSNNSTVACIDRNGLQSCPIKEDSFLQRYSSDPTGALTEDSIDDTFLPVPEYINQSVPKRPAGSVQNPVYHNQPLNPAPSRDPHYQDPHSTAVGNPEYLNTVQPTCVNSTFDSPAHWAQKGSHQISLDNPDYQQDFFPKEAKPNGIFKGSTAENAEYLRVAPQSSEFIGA

With `NC1CCN(c2ccc(-c3cc(Cl)cc(C(=O)N[C@@H](c4cc5ccccc5[nH]4)c4cc(F)ccc4O)c3)cc2)CC1` [Example 10, (R)-4′-(4-aminopiperidine-1-yl)-5-chloro-N-((5-fluoro-2-hydroxyphenyl)(1H-indole-2-yl)methyl)-[1,1′-biphenyl]-3-carboxamide], the GI50 in experiment [1] is 30 to 200 nM; in experiment [2], below 30 nM.

Take `NC1CCN(c2ccc(-c3cc(OC(F)(F)F)cc(C(=O)N[C@@H](c4cc5ccccc5[nH]4)c4cc(F)ccc4O)c3)cc2)CC1` [Example 11, (R)-4′-(4-aminopiperidine-1-yl)-N-((5-fluoro-2-hydroxyphenyl)(1H-indole-2-yl)methyl)-5-(trifluoromethoxy)-[1,1′-biphenyl]-3-carboxamide]: the GI50 in experiment [1] and in experiment [2] was above 200 nM in each case.

Consider `COc1ccc(F)cc1[C@@H](NC(=O)c1cc(OC(F)(F)F)cc(-c2ccc(N3CCC(N)CC3)cc2)c1)c1cc2ccccc2[nH]1` [Example 12, (R)-4′-(4-aminopiperidine-1-yl)-N-((5-fluoro-2-methoxyphenyl)(1H-indole-2-yl)methyl)-5-(trifluoromethoxy)-[1,1′-biphenyl]-3-carboxamide], for which the GI50 in experiment [1] is above 200 nM; in experiment [2], 30 to 200 nM.

On to `NC1CCN(c2ccc(-c3cc(C(=O)N[C@@H](c4cc5ccccc5[nH]4)c4cc(F)ccc4O)cc(-n4ccnc4)c3)cc2)CC1` [Example 13, (R)-4′-(4-aminopiperidine-1-yl)-N-((5-fluoro-2-hydroxyphenyl)(1H-indole-2-yl)methyl)-5-(1H-imidazole-1-yl)-[1,1′-biphenyl]-3-carboxamide], for which the GI50 in experiment [1] and in experiment [2] was above 200 nM throughout.

With `NC1CCN(c2ccc(-c3cc(C(=O)N[C@@H](c4cc5ccccc5[nH]4)c4cc(F)ccc4O)ccn3)cc2)CC1` [Example 14, (R)-2-(4-(4-aminopiperidine-1-yl)phenyl)-N-((5-fluoro-2-hydroxyphenyl)(1H-indole-2-yl)methyl)isonicotinamide], the results for the GI50 in experiment [1] and in experiment [2] were above 200 nM and 30 to 200 nM, respectively.

For the molecule `COc1ccc(F)cc1[C@@H](NC(=O)c1ccnc(-c2ccc(N3CCC(N)CC3)cc2)c1)c1cc2ccccc2[nH]1` [Example 15, (R)-2-(4-(4-aminopiperidine-1-yl)phenyl)-N-((5-fluoro-2-methoxyphenyl)(1H-indole-2-yl)methyl)isonicotinamide], the GI50 in experiment [1] and in experiment [2] was above 200 nM each time.

Regarding `Cc1cc(C(=O)N[C@@H](c2cc3ccccc3[nH]2)c2cc(F)ccc2O)cc(-c2cnc(N3CCC(N)CC3)nc2)c1` [Example 16, (R)-3-(2-(4-aminopiperidine-1-yl)pyrimidine-5-yl)-N-((5-fluoro-2-hydroxyphenyl)(1H-indole-2-yl)methyl)-5-methylbenzamide], the GI50 in experiment [1] was 30 to 200 nM; in experiment [2], below 30 nM.

Regarding `Cc1cc(C(=O)N[C@@H](c2cc3ccccc3[nH]2)c2cc(F)ccc2O)cc(-c2ccc(N3CCC(N)CC3)cn2)c1` [Example 17, (R)-3-(5-(4-aminopiperidine-1-yl)pyridine-2-yl)-N-((5-fluoro-2-hydroxyphenyl)(1H-indole-2-yl)methyl)-5-methylbenzamide], the GI50 in experiment [1] and in experiment [2] was below 30 nM in each case.

As for `Cc1cc(C(=O)N[C@@H](c2cc3ccccc3[nH]2)c2cc(F)ccc2O)cc(-c2cnc(N3CCC(N)CC3)cn2)c1` [Example 18, (R)-3-(5-(4-aminopiperidine-1-yl)pyrazine-2-yl)-N-((5-fluoro-2-hydroxyphenyl)(1H-indole-2-yl)methyl)-5-methylbenzamide], the GI50 in experiment [1] and in experiment [2] was below 30 nM in each case.

As to `Cc1cc(C(=O)N[C@@H](c2cc3ccccc3[nH]2)c2cc(F)ccc2O)cc(-c2ccc(N3CCC(N)CC3)nc2)c1` [Example 19, (R)-3-(6-(4-aminopiperidine-1-yl)pyridine-3-yl)-N-((5-fluoro-2-hydroxyphenyl)(1H-indole-2-yl)methyl)-5-methylbenzamide], the GI50 in experiment [1] and in experiment [2] was below 30 nM each time.

Consider `Cc1cc(C(=O)N[C@@H](c2cc3ccccc3[nH]2)c2cc(F)ccc2O)cc(-c2ccc(N3CCC(N)CC3)nn2)c1` [Example 20, (R)-3-(6-(4-aminopiperidine-1-yl)pyridazine-3-yl)-N-((5-fluoro-2-hydroxyphenyl)(1H-indole-2-yl)methyl)-5-methylbenzamide], for which the GI50 in experiment [1] is above 200 nM; in experiment [2], 30 to 200 nM.

For the molecule `Cc1cc(C(=O)N[C@@H](c2cc3ccccc3[nH]2)c2cc(F)ccc2O)cc(-c2ncc(N3CCC(N)CC3)cn2)c1` [Example 21, (R)-3-(5-(4-aminopiperidine-1-yl)pyrimidine-2-yl)-N-((5-fluoro-2-hydroxyphenyl)(1H-indole-2-yl)methyl)-5-methylbenzamide], the GI50 in experiment [1] and in experiment [2] was below 30 nM each time.

Regarding `Cc1cc(C(=O)N[C@@H](c2cc3ccccc3[nH]2)c2cc(F)ccc2O)cc(-c2ccc(N3CCC(N)CC3)c(F)c2)c1` [Example 22, (R)-4′-(4-aminopiperidine-1-yl)-3′-fluoro-N-((5-fluoro-2-hydroxyphenyl)(1H-indole-2-yl)methyl)-5-methyl-[1,1′-biphenyl]-3-carboxamide], the GI50 in experiment [1] and in experiment [2] was below 30 nM throughout.

Turning to `Cc1cc(C(=O)N[C@@H](c2cc3ccccc3[nH]2)c2cc(F)ccc2O)cc(-c2ccc(N3CCC(N)CC3)cc2C)c1` [Example 23, (R)-4′-(4-aminopiperidine-1-yl)-N-((5-fluoro-2-hydroxyphenyl)(1H-indole-2-yl)methyl)-2′,5-dimethyl-[1,1′-biphenyl]-3-carboxamide], the GI50 in experiment [1] and in experiment [2] was below 30 nM in each case.

For `Cc1cc(C(=O)N[C@@H](c2cc3ccccc3[nH]2)c2cc(F)ccc2O)cc(-c2ccc(N3CCC(N)CC3)cc2F)c1` [Example 24, (R)-4′-(4-aminopiperidine-1-yl)-2′-fluoro-N-((5-fluoro-2-hydroxyphenyl)(1H-indole-2-yl)methyl)-5-methyl-[1,1′-biphenyl]-3-carboxamide], the GI50 in experiment [1] and in experiment [2] was below 30 nM in each case.

For the molecule `Cc1cc(C(=O)N[C@@H](c2cc3ccccc3[nH]2)c2cc(F)ccc2O)cc(-c2ccc(N3CCC(N)CC3)c(C)c2)c1` [Example 25, (R)-4′-(4-aminopiperidine-1-yl)-N-((5-fluoro-2-hydroxyphenyl)(1H-indole-2-yl)methyl)-3′,5-dimethyl-[1,1′-biphenyl]-3-carboxamide], the GI50 in experiment [1] and in experiment [2] was below 30 nM each time.

In the case of `Cc1cc(C(=O)N[C@@H](c2cc3ccc(F)cc3[nH]2)c2cc(F)ccc2O)cc(-c2ccc(N3CCC(N)CC3)cc2)c1` [Example 26, (R)-4′-(4-aminopiperidine-1-yl)-N-((6-fluoro-1H-indole-2-yl)(5-fluoro-2-hydroxyphenyl)methyl)-5-methyl-[1,1′-biphenyl]-3-carboxamide], the GI50 in experiment [1] was 30 to 200 nM; in experiment [2] it was below 30 nM.

`Cc1cc(C(=O)N[C@@H](c2cc3ccc(Cl)cc3[nH]2)c2cc(F)ccc2O)cc(-c2ccc(N3CCC(N)CC3)cc2)c1` [Example 27, (R)-4′-(4-aminopiperidine-1-yl)-N-((6-chloro-1H-indole-2-yl)(5-fluoro-2-hydroxyphenyl)methyl)-5-methyl-[1,1′-biphenyl]-3-carboxamide]: the GI50 was above 200 nM in experiment [1] and 30 to 200 nM in experiment [2].

As for `Cc1c(C(=O)N[C@@H](c2cc3ccccc3[nH]2)c2cc(F)ccc2O)cccc1-c1ccc(N2CCC(N)CC2)cc1` [Example 30, (R)-4′-(4-aminopiperidine-1-yl)-N-((5-fluoro-2-hydroxyphenyl) (1H-indole-2-yl)methyl)-2-methyl-[1,1′-biphenyl]-3-carboxamide], the GI50 in experiment [1] and in experiment [2] was above 200 nM each time.

With `Cc1cc(C(=O)N[C@H](c2cc3ccccc3[nH]2)c2cc(F)ccc2O)cc(-c2ccc(N3CCC(N)CC3)cc2)c1` [Example 31, (S)-4′-(4-aminopiperidine-1-yl)-N-((5-fluoro-2-hydroxyphenyl)(1H-indole-2-yl)methyl)-5-methyl-[1, l′-biphenyl]-3-carboxamide], the GI50 in experiment [1] and in experiment [2] was above 200 nM throughout.
